Results: the supplement of paper PMC10307832

Key:
Experiment in all cases: relative viability (nuclei count vs DMSO), 5 days (fraction); higher = more cells survive
[1] = system: NCI-H1975
Method in brief: (§1)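 Lung cancer cell lines in 1536-well plates were dosed by pin tool the day after seeding, either with one drug alone or with a fixed anchor-drug dose plus five library-drug doses (not always all listed) in √10 steps. After 5 days, cells were fixed and their nuclei stained in one step (final 0.05% Triton X-100, 1% formaldehyde, 1 ug/ml Hoechst), then counted on 4× images. Relative viability is the nuclei count in treated wells divided by that in vehicle wells. Values are medians of duplicate plates.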

[2] = system: HCC-827
Method in brief: as §1

[3] = system: NCI-H23
Method in brief: as §1

[4] = system: HARA
Method in brief: as §1

[5] = system: 201T
Method in brief: as §1

[6] = system: HCC-15
Method in brief: as §1

[7] = system: A-427
Method in brief: as §1

[8] = system: NCI-H358
Method in brief: as §1

[9] = system: NCI-H838
Method in brief: as §1

[10] = system: BEN
Method in brief: as §1

[11] = system: COR-L23
Method in brief: as §1

[12] = system: NCI-H1650
Method in brief: as §1

[13] = system: NCI-H1792
Method in brief: as §1

[14] = system: NCI-H650
Method in brief: as §1

[15] = system: HCC-44
Method in brief: as §1

[16] = system: NCI-H1437
Method in brief: as §1

[17] = system: NCI-H441
Method in brief: as §1

[18] = system: NCI-H596
Method in brief: as §1

[19] = system: EKVX
Method in brief: as §1

[20] = system: SK-MES-1
Method in brief: as §1

How did the relative viability ([1]; first compound 0.0002 µM) turn out when `CC(=O)O[C@@]12CO[C@@H]1C[C@H](O)[C@@]1(C)C(=O)[C@H](O)C3=C(C)[C@@H](OC(=O)[C@H](O)[C@@H](NC(=O)OC(C)(C)C)c4ccccc4)C[C@@](O)([C@@H](OC(=O)c4ccccc4)[C@H]21)C3(C)C` [Docetaxel] + CS(=O)(=O)N1CCN(Cc2cc3nc(-c4cccc5[nH]ncc45)nc(N4CCOCC4)c3s2)CC1 [Pictilisib] (partner 1 µM) was run?
The relative viability was 0.3.

And the relative viability ([1]; first compound 0.000632 µM)?
Its relative viability is 0.261.

What about the relative viability ([1]; first compound 0.002 µM) of the same molecule?
The relative viability was 0.213.

And the relative viability ([1]; first compound 0.006325 µM)?
Its relative viability is 0.156.

And the relative viability ([1]; first compound 0.02 µM)?
Its relative viability is 0.121.

What about the relative viability ([2]; first compound 0.0002 µM) of the same molecule?
The relative viability was 0.904.

And the relative viability ([2]; first compound 0.000632 µM)?
The relative viability was 1.08.

And the relative viability ([2]; first compound 0.002 µM)?
The relative viability was 0.787.

What about the relative viability ([2]; first compound 0.006325 µM) of the same molecule?
Its relative viability is 0.466.

And the relative viability ([2]; first compound 0.02 µM)?
Its relative viability is 0.363.

And the relative viability ([3]; first compound 0.0002 µM)?
The relative viability was 0.499.

What about the relative viability ([3]; first compound 0.000632 µM) of the same molecule?
The relative viability was 0.403.

What about the relative viability ([3]; first compound 0.002 µM) of the same molecule?
Its relative viability is 0.248.

And the relative viability ([3]; first compound 0.006325 µM)?
Its relative viability is 0.185.

What about the relative viability ([3]; first compound 0.02 µM) of the same molecule?
Its relative viability is 0.144.

What about the relative viability ([4]; first compound 0.0002 µM) of the same molecule?
Its relative viability is 0.211.

What about the relative viability ([4]; first compound 0.000632 µM) of the same molecule?
Its relative viability is 0.159.

And the relative viability ([4]; first compound 0.002 µM)?
Its relative viability is 0.126.

And the relative viability ([4]; first compound 0.006325 µM)?
The relative viability was 0.0701.

And the relative viability ([4]; first compound 0.02 µM)?
Its relative viability is 0.0659.

What about the relative viability ([5]; first compound 0.0002 µM) of the same molecule?
The relative viability was 0.683.

And the relative viability ([5]; first compound 0.000632 µM)?
Its relative viability is 0.672.

What about the relative viability ([5]; first compound 0.002 µM) of the same molecule?
The relative viability was 0.557.

And the relative viability ([5]; first compound 0.006325 µM)?
Its relative viability is 0.567.

And the relative viability ([5]; first compound 0.02 µM)?
Its relative viability is 0.289.

And the relative viability ([6]; first compound 0.0002 µM)?
Its relative viability is 0.679.

And the relative viability ([6]; first compound 0.000632 µM)?
Its relative viability is 0.491.

What about the relative viability ([6]; first compound 0.002 µM) of the same molecule?
Its relative viability is 0.226.

What about the relative viability ([7]; first compound 0.0002 µM) of the same molecule?
Its relative viability is 0.766.

What about the relative viability ([7]; first compound 0.000632 µM) of the same molecule?
The relative viability was 0.885.

What about the relative viability ([7]; first compound 0.002 µM) of the same molecule?
Its relative viability is 0.488.

What about the relative viability ([7]; first compound 0.006325 µM) of the same molecule?
Its relative viability is 0.23.

What about the relative viability ([7]; first compound 0.02 µM) of the same molecule?
Its relative viability is 0.158.

What about the relative viability ([8]; first compound 0.0002 µM) of the same molecule?
Its relative viability is 0.321.

And the relative viability ([8]; first compound 0.000632 µM)?
Its relative viability is 0.34.

And the relative viability ([8]; first compound 0.002 µM)?
Its relative viability is 0.283.

What about the relative viability ([8]; first compound 0.02 µM) of the same molecule?
The relative viability was 0.157.

What about the relative viability ([9]; first compound 0.0002 µM) of the same molecule?
Its relative viability is 0.477.

And the relative viability ([9]; first compound 0.000632 µM)?
Its relative viability is 0.473.

And the relative viability ([9]; first compound 0.002 µM)?
Its relative viability is 0.276.

What about the relative viability ([9]; first compound 0.006325 µM) of the same molecule?
The relative viability was 0.149.

What about the relative viability ([9]; first compound 0.02 µM) of the same molecule?
Its relative viability is 0.116.

And the relative viability ([10]; first compound 0.0002 µM)?
Its relative viability is 0.479.

What about the relative viability ([10]; first compound 0.000632 µM) of the same molecule?
Its relative viability is 0.504.

What about the relative viability ([10]; first compound 0.006325 µM) of the same molecule?
Its relative viability is 0.23.

And the relative viability ([10]; first compound 0.02 µM)?
The relative viability was 0.169.

And the relative viability ([11]; first compound 0.0002 µM)?
Its relative viability is 0.632.

And the relative viability ([11]; first compound 0.000632 µM)?
The relative viability was 0.649.

What about the relative viability ([11]; first compound 0.002 µM) of the same molecule?
The relative viability was 0.42.

And the relative viability ([11]; first compound 0.006325 µM)?
The relative viability was 0.124.

And the relative viability ([11]; first compound 0.02 µM)?
Its relative viability is 0.0817.

What about the relative viability ([12]; first compound 0.0002 µM) of the same molecule?
Its relative viability is 0.431.

What about the relative viability ([12]; first compound 0.000632 µM) of the same molecule?
The relative viability was 0.289.

What about the relative viability ([12]; first compound 0.002 µM) of the same molecule?
The relative viability was 0.241.

And the relative viability ([12]; first compound 0.006325 µM)?
The relative viability was 0.146.

And the relative viability ([12]; first compound 0.02 µM)?
The relative viability was 0.13.

What about the relative viability ([13]; first compound 0.0002 µM) of the same molecule?
The relative viability was 0.274.

What about the relative viability ([13]; first compound 0.000632 µM) of the same molecule?
Its relative viability is 0.273.

And the relative viability ([13]; first compound 0.002 µM)?
Its relative viability is 0.178.

What about the relative viability ([13]; first compound 0.02 µM) of the same molecule?
Its relative viability is 0.073.

What about the relative viability ([14]; first compound 0.0002 µM) of the same molecule?
The relative viability was 0.75.

What about the relative viability ([14]; first compound 0.000632 µM) of the same molecule?
The relative viability was 0.48.

And the relative viability ([14]; first compound 0.002 µM)?
Its relative viability is 0.313.

What about the relative viability ([14]; first compound 0.006325 µM) of the same molecule?
The relative viability was 0.274.

And the relative viability ([14]; first compound 0.02 µM)?
The relative viability was 0.207.

What about the relative viability ([15]; first compound 0.0002 µM) of the same molecule?
The relative viability was 0.406.

What about the relative viability ([15]; first compound 0.000632 µM) of the same molecule?
Its relative viability is 0.44.

What about the relative viability ([15]; first compound 0.002 µM) of the same molecule?
Its relative viability is 0.421.

What about the relative viability ([15]; first compound 0.006325 µM) of the same molecule?
The relative viability was 0.144.

What about the relative viability ([15]; first compound 0.02 µM) of the same molecule?
The relative viability was 0.0949.

What about the relative viability ([16]; first compound 0.0002 µM) of the same molecule?
Its relative viability is 0.453.

What about the relative viability ([16]; first compound 0.000632 µM) of the same molecule?
Its relative viability is 0.366.

What about the relative viability ([16]; first compound 0.002 µM) of the same molecule?
The relative viability was 0.132.

What about the relative viability ([16]; first compound 0.006325 µM) of the same molecule?
The relative viability was 0.117.

What about the relative viability ([16]; first compound 0.02 µM) of the same molecule?
Its relative viability is 0.0671.

What about the relative viability ([17]; first compound 0.0002 µM) of the same molecule?
Its relative viability is 0.352.

And the relative viability ([17]; first compound 0.000632 µM)?
Its relative viability is 0.32.

And the relative viability ([17]; first compound 0.002 µM)?
Its relative viability is 0.198.

And the relative viability ([17]; first compound 0.006325 µM)?
Its relative viability is 0.177.

What about the relative viability ([17]; first compound 0.02 µM) of the same molecule?
Its relative viability is 0.11.

And the relative viability ([18]; first compound 0.0002 µM)?
Its relative viability is 0.405.

And the relative viability ([18]; first compound 0.000632 µM)?
Its relative viability is 0.252.

What about the relative viability ([18]; first compound 0.002 µM) of the same molecule?
Its relative viability is 0.452.

What about the relative viability ([18]; first compound 0.006325 µM) of the same molecule?
Its relative viability is 0.297.

What about the relative viability ([18]; first compound 0.02 µM) of the same molecule?
The relative viability was 0.256.

And the relative viability ([19]; first compound 0.0002 µM)?
Its relative viability is 0.447.

What about the relative viability ([19]; first compound 0.000632 µM) of the same molecule?
Its relative viability is 0.45.

What about the relative viability ([19]; first compound 0.002 µM) of the same molecule?
Its relative viability is 0.26.

And the relative viability ([19]; first compound 0.006325 µM)?
Its relative viability is 0.187.

And the relative viability ([19]; first compound 0.02 µM)?
Its relative viability is 0.119.

And the relative viability ([20]; first compound 0.0002 µM)?
Its relative viability is 0.303.

And the relative viability ([20]; first compound 0.000632 µM)?
The relative viability was 0.34.

What about the relative viability ([20]; first compound 0.006325 µM) of the same molecule?
The relative viability was 0.206.

And the relative viability ([20]; first compound 0.02 µM)?
Its relative viability is 0.119.
